The text below walks through data of ChEMBL document CHEMBL5042524, “Discovery of Novel Histone Deacetylase 6 (HDAC6) Inhibitors with Enhanced Antitumor Immunity of Anti-PD-L1 Immunotherapy in Melanoma” (J Med Chem, 2022).

SMILES strings stand for the structures. Active and inactive are the calls of the source. The calls are words filed in the database; no cut-off is given here.

Series [1] relates to Jurkat. The series can be described thus: Effect on acetyl-SMC3 expression level in human Jurkat T cells at 0.1 to 0.8 uM incubated for 6 hrs by Western blot analysis. Format: functional, cell-based. Conditions: dose 0.1-0.8 µM.
A short description of series [2]: Cytotoxicity against human Jurkat cells assessed as reduction in cell viability incubated for 72 hrs by CCK-8 assay. Background: Tetrazolium assays rely on reduction of a dye to a coloured formazan, in cell work by metabolically active cells.
Series [3] in a line: Antiproliferative activity against human YCC3/7 cells assessed as cell growth inhibition. Format: functional, cell-based.
The target of the next series is Histone deacetylase 3 (Homo sapiens, UniProt O15379). The series can be described thus: Inhibition of recombinant human His-tagged HDAC3 expressed in baculovirus insect cells using Ac-Leu-Gly-Lys (Ac)-AMC as substrate preincubated for 5 mins followed by substrate addition and measured after 30 mins by fluorescence microtiter plate reader assay.
In the next series the target is Histone deacetylase. The series can be described thus: Inhibition of HDAC in human HeLa nuclear extracts using fluorometric substrate incubated for 30 mins by fluorescence plate reader analysis. Format: cell-based.
The test system of series [4] is B16-F10. The series can be described thus: Upregulation of alpha-tubulin expression in mouse B16-F10 cells at 0.1 to 2 uM incubated for 6 hrs by Western blot analysis. It counts as functional, cell-based. Conditions: dose 0.1-2 µM. A general note: In western blotting, separated proteins are transferred to a membrane and probed.
The test system of series [5] is B16-F10. The series can be described thus: Induction of apoptosis in mouse B16-F10 cells assessed as increase in apoptotic cells at 0.1 uM incubated for 48 hrs by Annexin V-FITC/PI staining based flow cytometry analysis relative to control. Format: functional. (In general: In flow cytometry, cells or beads pass a laser one at a time.)
Series [6] has as its system B16-F10. The series can be described thus: Induction of apoptosis in mouse B16-F10 cells assessed as increase in apoptotic cells at 0.5 uM incubated for 48 hrs by Annexin V-FITC/PI staining based flow cytometry analysis relative to control. It counts as functional.
Series [7] has as its system Jurkat. The series can be described thus: Induction of apoptosis in human Jurkat T cells assessed as increase in Bax protein expression at 0.2 to 2 uM measured after 6 hrs by Western blot analysis. It counts as functional, cell-based. The following applies: dose 0.2-2 µM.
Series [8] deals with Jurkat. The series can be described thus: Upregulation of alpha-tubulin expression in human Jurkat T cells at 0.1 to 2 uM incubated for 6 hrs by Western blot analysis. Conditions: dose 0.1-2 µM. It counts as functional, cell-based.
Series [9] concerns B16-F10. The series can be described thus: Effect on acetyl-SMC3 expression level in mouse B16-F10 cells at 1 to 4 uM incubated for 6 hrs by Western blot analysis. Format: functional, cell-based. Conditions: dose 1-4 µM.
In series [10] the test system is Jurkat. The series can be described thus: Induction of apoptosis in human Jurkat T cells assessed as downregulation of Bcl-2 expression at 0.2 to 2 uM incubated for 6 hrs by Western blot analysis. Format: functional, cell-based. The following applies: dose 0.2-2 µM.
For the next series, the target named is T1, Histone deacetylase 8 (Homo sapiens, UniProt Q9BY41).
T1 sequence (Q9BY41 whole entry): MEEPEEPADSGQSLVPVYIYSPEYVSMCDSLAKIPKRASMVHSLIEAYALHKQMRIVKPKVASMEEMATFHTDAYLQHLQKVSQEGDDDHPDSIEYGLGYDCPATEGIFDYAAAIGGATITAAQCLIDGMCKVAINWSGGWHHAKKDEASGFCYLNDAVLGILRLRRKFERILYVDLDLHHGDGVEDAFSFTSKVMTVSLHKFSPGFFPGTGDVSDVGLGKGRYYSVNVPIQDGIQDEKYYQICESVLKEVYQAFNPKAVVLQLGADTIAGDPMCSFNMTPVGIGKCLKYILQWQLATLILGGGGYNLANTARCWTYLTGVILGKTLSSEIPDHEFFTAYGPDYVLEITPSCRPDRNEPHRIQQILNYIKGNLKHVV
The series can be described thus: Inhibition of full length recombinant human C-terminal His tagged HDAC8 expressed in baculovirus infected Sf9 insect cells using Ac-Leu-GlyLys (Tfa)-AMC as substrate preincubated for 5 mins followed by substrate addition and measured after 30 mins by fluorescence microtiter plate reader assay.

Series [11] deals with B16-F10. The series can be described thus: Induction of apoptosis in mouse B16-F10 cells assessed as increase in apoptotic cells at 1 uM incubated for 48 hrs by Annexin V-FITC/PI staining based flow cytometry analysis relative to control. Format: functional.
The target of another series is Histone deacetylase 1 (Homo sapiens, UniProt Q13547). The series can be described thus: Inhibition of recombinant human HDAC1 expressed in baculovirus expression system using Ac-Leu-Gly-Lys (Ac)-AMC as substrate preincubated for 5 mins followed by substrate addition and measured after 30 mins by fluorescence microtiter plate reader assay.
In series [12] the test system is Jurkat. The series can be described thus: Upregulation of acetylated alpha-tubulin expression in human Jurkat T cells incubated for 6 hrs by Western blot analysis. It counts as functional, cell-based. Conditions: dose 0.1-2 µM.
Another series relates to A549. The series can be described thus: cells. Format: functional, cell-based. The following applies: Homo sapiens, A549, 48 h.
Series [13] concerns B16-F10. The series can be described thus: Effect on acetyl-H3 expression level in mouse B16-F10 cells at 1 to 4 uM incubated for 6 hrs by Western blot analysis. Format: functional, cell-based. The following applies: dose 1-4 µM.

Histone deacetylase 3, sequence (O15379 whole entry): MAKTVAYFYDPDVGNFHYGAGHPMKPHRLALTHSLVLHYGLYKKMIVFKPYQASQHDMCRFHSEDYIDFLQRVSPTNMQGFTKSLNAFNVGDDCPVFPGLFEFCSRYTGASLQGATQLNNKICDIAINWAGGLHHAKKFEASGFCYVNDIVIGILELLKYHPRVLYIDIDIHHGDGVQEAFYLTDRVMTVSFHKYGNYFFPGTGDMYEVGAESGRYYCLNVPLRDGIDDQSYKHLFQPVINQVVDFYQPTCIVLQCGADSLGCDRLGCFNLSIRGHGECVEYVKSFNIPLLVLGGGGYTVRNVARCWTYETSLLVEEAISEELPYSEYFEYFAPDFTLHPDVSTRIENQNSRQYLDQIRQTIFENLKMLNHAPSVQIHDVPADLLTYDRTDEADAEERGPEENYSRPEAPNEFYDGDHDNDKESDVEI
Histone deacetylase 1, sequence (Q13547 whole entry): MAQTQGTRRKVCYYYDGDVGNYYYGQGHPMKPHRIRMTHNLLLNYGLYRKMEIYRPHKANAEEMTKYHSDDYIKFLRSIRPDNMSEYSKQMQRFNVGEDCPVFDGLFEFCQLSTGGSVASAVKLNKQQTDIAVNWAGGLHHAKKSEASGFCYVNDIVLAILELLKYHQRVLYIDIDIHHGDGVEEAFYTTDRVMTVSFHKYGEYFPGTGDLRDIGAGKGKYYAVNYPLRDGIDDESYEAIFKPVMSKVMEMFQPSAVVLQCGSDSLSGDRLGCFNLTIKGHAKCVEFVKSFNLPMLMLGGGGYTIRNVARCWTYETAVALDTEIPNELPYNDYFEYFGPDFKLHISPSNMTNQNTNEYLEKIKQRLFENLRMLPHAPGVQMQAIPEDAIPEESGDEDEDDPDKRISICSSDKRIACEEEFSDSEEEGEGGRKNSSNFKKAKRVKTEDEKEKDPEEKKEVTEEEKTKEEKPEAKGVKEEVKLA
Description for A549: Antiproliferative activity against human A549 cells assessed as inhibition of cell proliferation measured after 48 hrs by MTT assay

Usually IC50 stands for the midpoint of a concentration-inhibition curve. In the case of `COc1ccc(-c2ncc(C(=O)NCCCCCCC(=O)NO)s2)c(OC)c1`, the result in the series with Jurkat [1], with Jurkat [7], in the series with B16-F10 [9], in the series on Jurkat [10] and with B16-F10 [13] was Active. Also, in [2], the IC50 at 72 h was 0.16 µM. The IC50 in [3] amounted to 1.08 µM; on Histone deacetylase 3, 10.4 µM; on Histone deacetylase, 0.04 µM; at Histone deacetylase 8 it was 9.02 µM; at Histone deacetylase 1 it was 3.19 µM; in the series with A549, 1.91 µM. Also, the outcome in the series on B16-F10 [4] and with Jurkat [8] was inactive. Further, the Activity in the series on B16-F10 [5] is 57.09%; in the series on B16-F10 [6], 78.98%; in the series with B16-F10 [11], 87.91%; with Jurkat [12] it was “Dose-Dependent Effect”.
`COc1ccc(-c2ncc(C(=O)NCCCCCCC(=O)NO)[nH]2)c(OC)c1`: the outcome with Jurkat [1], in the series on Jurkat [7], in the series on B16-F10 [9], with Jurkat [10] and in the series on B16-F10 [13] was Active. For the same compound, in [2], the IC50 at 72 h came out at 0.23 µM. The IC50 was determined as 1.52 µM in series [3]; 7.12 µM at Histone deacetylase 3; 0.08 µM on Histone deacetylase; 14.6 µM on Histone deacetylase 8; 4.66 µM at Histone deacetylase 1; 2.22 µM in the series on A549. In addition, the result with B16-F10 [4] and with Jurkat [8] was inactive. Besides, the Activity was 16.58% in the series on B16-F10 [5], 38.71% in the series on B16-F10 [6], 57.73% in the series with B16-F10 [11] and “Dose-Dependent Effect” in the series on Jurkat [12].
